Data taken from patent US7459281B2, “Docetaxel immunoassay” (Saladax Biomedical Inc., priority 2005, dated 2008).

Key:
[1] = tested on: docetaxel antibody (antiserum produced in Example 11 with C7 substituted docetaxel acid derivative immunogen); assay: Indirect competitive microtiter plate ELISA, IC50 and cross-reactivity, polyclonal antibodies to C7 substituted docetaxel acid derivative conjugate; assay type: binding, mouse (BALB/c); conditions: antibody of Example 11, immunogen of Example 9a
Experimental: Ten Female BALB/c mice were immunized i.p. with 100 μg/mouse of docetaxel-immunogen: either docetaxel-BTG as prepared in Example 9a or docetaxel-KLH immunogen as prepared in Example 9b emulsified in Complete Freund's Adjuvant. After the initial injection mice were boosted once after four weeks with 100 μg/mouse of the same immunogen emulsified in Incomplete Freund's Adjuvant. Ten days after the boosts test bleeds from each mouse were obtained by orbital bleed. The anti-serum from the last test bleeds containing docetaxel antibodies from each of the mice were evaluated by the procedures in Examples 14a and 16 to determine their reactivity to docetaxel and their cross reactivity to 10-O-Deacytlbaccatin III and, paclitaxel [Taxol].
Antibodies were screened by Enzyme-Linked Immunosorbent Assay (ELISA) method. This method for screening docetaxel antibodies (produced in Examples 10 and 11) was performed with the microtiter plates that were sensitized with docetaxel-BSA as described in Examples 12 and 13. The antibody screening assay was performed by diluting the antisera containing docetaxel antibodies to 1:100, 1:1,000, 1:10,000 and 1:100,000 in phosphate buffered saline containing 0.1% BSA and 0.01% thimerosal. To each well of docetaxel-BSA sensitized wells (prepared in Examples 12 and 13) 100 μL of diluted antibody was added and incubated for 10 minutes at room temperature with shaking. During this incubation antibody binds to the docetaxel-conjugate in the well. The wells of the plates were washed three times with 0.02 M TRIS, 0.9% NaCl, 0.5% Tween-80 and 0.001% Thimerosal, pH 7.8 to remove any unbound antibody. […] Following the incubation for color development, 50 μL of stop solution (1.5% sodium fluoride in di H2O) was added to each well to stop the color development and after 10 seconds of shaking the absorbance was determined at 650 nm with a 96-well plate reader. The amount of antibody in a well was proportional to the absorbance measured and was expressed as the dilution (titer) resulting in an absorbance of 1.5. Titers were determined by graphing log antibody dilution of the antibody measured (x-axis) vs. absorbance 650 nm (y-axis) and extrapolating the titer at an absorbance of 1.5. The titer determined the concentration (dilution) of antibody used in the indirect competitive Microtiter plate assay described in Examples 15 and 16.
(§1) Docetaxel concentrations were measured by an indirect competitive Enzyme-Linked Immunosorbent Assay (ELISA) method. […]

[2] = tested on: docetaxel monoclonal antibody (produced in Example 11); assay: Indirect competitive microtiter plate ELISA, IC50 and cross-reactivity, monoclonal antibodies to C7 substituted docetaxel acid derivative conjugate; assay type: binding, mouse (BALB/c); conditions: monoclonal antibody of Example 11, immunogen of Examples 9a & 9b; microtiter plate prepared as in Example 13
Experimental: For monoclonal antibodies starting […] before the fusion, the mice were injected i.p. with 400 μg (3 days before fusion), 200 μg (2 days before fusion), and 200 μg (1 day before fusion) on three successive days with either docetaxel-BTG or docetaxel-KLH (depending on the original immunogen) in PBS. According to the protocol of Coligan et al. spleen cells were isolated from the selected mice and fused with 2×10^7 cells of the myeloma fusion partner cell line (SP2/o) using 50% polyethylene glycol 1500 [Coligan, J. E. et al., eds., Current Protocols in Immunology, 2.5.1-2.5.8, (1992), Wiley & Sons, NY.] […]
Antibodies were screened by Enzyme-Linked Immunosorbent Assay (ELISA) method. […] Following the incubation for color development, 50 μL of stop solution (1.5% sodium fluoride in di H2O) was added to each well to stop the color development and after 10 seconds of shaking the absorbance was determined at 650 nm on a 96-well plate reader. The amount of antibody in a well was proportional to the absorbance measured. Samples with an absorbance of three times background or greater were designated as positive.
as §1

[3] = microtiter plate prepared as in Example 12
[4] = microtiter plate prepared as in Example 13

SMILES	percent cross-reactivity relative to docetaxel (ratio of IC50 for docetaxel to IC50 for analyte) [1, 3]	percent cross-reactivity relative to docetaxel (ratio of IC50 for docetaxel to IC50 for analyte) [1, 4]	percent cross-reactivity relative to docetaxel (ratio of IC50 for docetaxel to IC50 for analyte) [2]
CC(=O)O[C@@]12CO[C@@H]1CC(O)[C@@]1(C)C(=O)[C@H](O)C3=C(C)C(O)C[C@@](O)([C@@H](OC(=O)c4ccccc4)[C@H]21)C3(C)C (stereo partly drawn) [10-O-Deacytlbaccatin III, 10-O-Deacetylbaccatin III]	less than 0.02%	less than 0.01%	less than 1.0%
CC(=O)O[C@H]1C(=O)[C@@]2(C)[C@H]([C@H](OC(=O)c3ccccc3)[C@]3(O)C[C@H](OC(=O)[C@H](O)[C@@H](NC(=O)c4ccccc4)c4ccccc4)C(C)=C1C3(C)C)[C@]1(OC(C)=O)CO[C@@H]1C[C@@H]2O [Paclitaxel, paclitaxel]	less than 2%	less than 1%	less than 12%
